Results: US20020172967A1, “Identification of non-covalent complexes by mass spectrometry” (priority 2001, published 2002)
pIC50, pKd: −log10 of the molar value. “Also recorded” adds a separate entry of the source. Read-outs that look alike come from different tables or passages of the source.

Assays:
[1] = molecular target: T1, stromelysin (catalytic domain) (Homo sapiens, UniProt P08254); experiment: ESI-MS detection of noncovalent complexes and competition experiments with stromelysin; format: binding; details: for specificity of association (no greater than 1:1 complex): ESI-MS; for competition of two ligands for the same binding site: pairwise ESI-MS experiment, ternary complex present or absent; for competitive / non-competitive binder or non-binder: ESI-MS competition experiments, S1′ site, same binding site as 4-phenylpyridine
T1 construct: The catalytic domain of stromelysin was prepared in accordance with well-known known procedures; made in house
Protocol: FIGS. 7A-7E are ligands that are known to bind in the S1′ site on stromelysin. […] The relative dissociation constants for each for each ligand were measured to optimize the amide. Competition experiments were also performed to assure that each ligand bound in the same binding site as 4-phenylpyridine. [drawing 41]
Acetohydroxamic acid was used as the ligand for the first binding site of stromelysin. It has been reported that complexation of zinc with acetohydroxamic acid prevents autocatalytic degradation of the protein.
The ESI-MS measurements were recorded on a Perkin Elmer Sciex API III mass spectrometer. Samples were introduced via […] i.d. fused silica capillary from a 50 μL syringe using a Harvard Apparatus Model 22-syringe pump at a flow rate of 1.500 μL/min. The orifice potential was set between 55 and 65V, and the interface heater was at 56° C. Mass spectra were obtained by averaging a sufficient number of scans to obtain adequate signal to noise.
The sample was analyzed by ESI-MS.
The catalytic domain of stromelysin was prepared in accordance with well-known known procedures. […] The stromelysin used for this study was in a solution of 20 mM Tris buffer, 5 mM CaCl2, 0.02% NaN3 at a pH of 7.5 and at a concentration of either 19.6 mg/mL or 21.7 mg/mL. Acetohydroxamic acid was used for the zinc-binding site.
The second step in the design process was the identification of a second ligand that binds to the target stromelysin at a site different from the binding site of acetohydroxamic acid. This may be accomplished by screening compounds for their ability to bind stromelysin in the presence of saturating amounts of acetohydroxamic acid.
The next step in the design process was to construct a ternary complex of the target stromelysin, the first ligand and the second ligand. This was accomplished by exposing the stromelysin target to the two ligands under conditions that result in complex formation.

[2] = molecular target: T2, PTP1b (Homo sapiens, UniProt P18031); experiment: chromagenic substrate assay of PTP1b function; format: biochemical; details: titration curves, FIG. 4; for pIC50: read-out: IC50
T2 sequence (P18031 1-435): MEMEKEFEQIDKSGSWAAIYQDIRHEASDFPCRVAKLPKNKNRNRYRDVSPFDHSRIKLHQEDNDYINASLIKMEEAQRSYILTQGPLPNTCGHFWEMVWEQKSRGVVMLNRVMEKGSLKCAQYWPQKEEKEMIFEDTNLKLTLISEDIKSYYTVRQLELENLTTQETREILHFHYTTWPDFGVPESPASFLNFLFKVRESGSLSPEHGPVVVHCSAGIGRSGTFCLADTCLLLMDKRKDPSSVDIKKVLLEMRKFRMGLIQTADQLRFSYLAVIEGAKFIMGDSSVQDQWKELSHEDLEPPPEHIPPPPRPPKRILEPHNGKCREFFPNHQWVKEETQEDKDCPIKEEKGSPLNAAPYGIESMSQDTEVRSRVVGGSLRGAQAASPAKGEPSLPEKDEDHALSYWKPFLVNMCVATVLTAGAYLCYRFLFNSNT
Protocol: FIG. 4 is a graph of titration curves used to determine the IC50 of the squaric acid fragment 8A and moniliformin.
(§1) The candidate target binding ligands shown below were tested by mass spectrometry in a manner similar to Example 1 to determine whether any of the fragments bound specifically to the target biomolecule, protein tyrosine phosphatase 1b (PTP1b), observed 1:1 noncovalent complex. Fragment molecules were chosen based on either their ability to mimic the stabilized transition state of PTP1b with a tyrosine phosphate ester or based on their known or suspected ability to inhibit cysteine proteases and the homology or similarities in the active sites PTP1b and cysteine proteases. The transition state mimics included in the library are derivatives of moniliformin and deltic acid. Each of these compounds contain a planar arrangement of oxygen atoms around and electrophilic center, similar to the planar arrangement of oxygen atoms around an electrophilic phosphorous in the stabilized transition state complex of phosphotyrosine and PTP1b. Also contained in the library were various examples of some fragment molecules containing functional groups known or suspected to interact with an active site cysteine of cysteine proteases. Included in this example are aldehydes, α-ketoacids, boronic acids, and […]. Other fragment molecules could contain functional groups such as α-ketoesters, sulfonyl fluorides, haloketones, azabenzenes, and disulfides and other fragment molecules that contain functional groups known or suspected to react with mercaptans. […] The ability of these fragments to block the function of PTP1b was determined by a chromagenic substrate assay.

[3] = molecular target: T3, protein tyrosine phosphatase 1b (PTP1b) (Homo sapiens, UniProt P18031); experiment: ESI-MS detection of 1:1 noncovalent complex with PTP1b; format: binding; details: mass spectrometry; for formation of specific complex with PTP1b: 1:1 noncovalent complex
T3 sequence (P18031 1-435): T2 sequence (P18031 1-435)
Protocol: as §1

T1 sequence (P08254 100-272 limits assumed): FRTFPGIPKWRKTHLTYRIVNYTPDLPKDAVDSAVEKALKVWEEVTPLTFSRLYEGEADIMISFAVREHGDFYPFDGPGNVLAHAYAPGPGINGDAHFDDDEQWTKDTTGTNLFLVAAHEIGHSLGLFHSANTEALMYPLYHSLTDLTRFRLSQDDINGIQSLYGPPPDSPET

Row | specificity of association (no greater than 1:1 complex) [1] | SMILES | competition of two ligands for the same binding site [1] | also measured
1 | specific | N#Cc1ccc(-c2ccc(O)cc2)cc1 [4-(4′-cyanophenyl)-phenol] | do not compete for the same binding site on a protein | 
2 | specific | COc1ccc(C(=O)Nc2ccccc2)cc1 [4-methoxy-N-phenylbenzamide] | compete for the same binding site on the protein | 
3 |  | O=c1c(O)c(-c2ccccc2)c1=O [Compound 8A] |  | pIC50 [2]: 4.22; formation of specific complex with PTP1b [3]: formed specific complexes with PTP1b; pKd ([3]; read-out: binding constant (Kd)): 4.60
4 |  | O=CCCc1ccccc1 [Compound 8D] |  | IC50 [2]: did not have the ability to block function; formation of specific complex with PTP1b [3]: formed specific complexes with PTP1b
5 |  | c1ccc(-c2ccncc2)cc1 [Ligand 7B] |  | competitive / non-competitive binder or non-binder [1]: non-competitive binders
6 |  | COc1ccc(C(=O)NCc2ccccc2)cc1 [Ligand 7G] |  | competitive / non-competitive binder or non-binder [1]: competitive binders
7 | bind to the protein specifically | N#Cc1ccc(NC(=O)Cc2ccccc2)cc1 [N-(4-cyanophenyl)-2-phenylacetamide] | do not compete for the same binding site on the protein | 
8 | specific | CC(=O)NO [acetohydroxamic acid] | do not compete for the same binding site on a protein | 
9 |  | O=c1cc(O)c1=O [moniliformin] |  | pIC50 [2]: 4.92

Row | SMILES | specificity of association (no greater than 1:1 complex) [1] | competition of two ligands for the same binding site [1] | also measured
10 | c1ccc(-c2ccncc2)cc1 [4-phenylpyridine] | specific; also recorded: bind to the protein specifically |  | 
